Patent US20230277533A1, “THERAPEUTIC COMBINATIONS COMPRISING UBIQUITIN-SPECIFIC-PROCESSING PROTEASE 1 (USP1) INHIBITORS AND POLY (ADP-RIBOSE) POLYMERASE (PARP) INHIBITORS” (KSQ Therapeutics, Inc., priority 2020, published 2023)

Legend:
Experiment in all cases: Colony formation (CFU) assay
Assay type in all cases: cell-based
[1] = tested on: 22RV1; conditions: Homo sapiens; 22RV1, prostate
Procedure: (§1) In vitro experiments were conducted using the colony formation unit (CFU) assay on various cell lines. The CFU assay involved first establishing what cell plating density enabled the development of clearly interspersed colonies on a six-well plate when left to grow for around 14 days. […] Media was changed on day 8 containing appropriate concentrations of DMSO, USP1 inhibitor, Niraparib, or Olaparib. At or around day 14 when clearly interspersed colonies were visible in the DMSO treated wells, the cells were fixed and stained using 0.1% crystal violet in 10% ethanol for 20 minutes at room temperature. The plates were imaged then the amount of crystal violet stain in each well was quantified by extracting the crystal violet into 10% acetic acid and the absorbance measured at 565 nm.
(§2) IC50 values were calculated by fitting a two-parameter hill equation to the dose-response measurements. Non-linear-least-squares was used to find parameter values that minimize the squared error of the model fit to measured dose response. Non-linear-least-squares estimation was performed using the minpack.lm R package, version 1.2-1. Bliss synergy scores were calculated using the synergyfinder R package version 1.6.1.

[2] = tested on: 8305C; conditions: Homo sapiens, thyroid
Procedure: as §1, §2

[3] = tested on: BICR18; conditions: BICR18, head and neck
Procedure: as §1, §2

[4] = tested on: CAPAN2; conditions: Homo sapiens, Capan-2; CAPAN2, pancreas
Procedure: as §1, §2

[5] = tested on: HBCx13B; conditions: breast
Procedure: as §1, §2

[6] = tested on: HBCx19; conditions: HBCx19, breast
Procedure: as §1, §2

[7] = tested on: HBCx8; conditions: HBCx8, breast
Procedure: as §1, §2

[8] = tested on: HCC1395; conditions: Homo sapiens; HCC1395, breast
Procedure: as §1, §2

[9] = tested on: HCC1438; conditions: HCC1438, lung
Procedure: as §1, §2

[10] = tested on: HCC1500; conditions: HCC1500, breast
Procedure: as §1, §2

[11] = tested on: HCC1954; conditions: Homo sapiens; HCC1954, breast
Procedure: as §1, §2

[12] = tested on: HCC202; conditions: HCC202, breast
Procedure: as §1, §2

[13] = tested on: HOS; conditions: Homo sapiens, bone
Procedure: as §1, §2

[14] = tested on: HS578T; conditions: Homo sapiens, Hs-578T, breast
Procedure: as §1, §2

[15] = tested on: HS870T; conditions: bone
Procedure: as §1, §2

[16] = tested on: KALS1; conditions: Homo sapiens, KALS-1; KALS1, nervous system
Procedure: as §1, §2

[17] = tested on: KLE; conditions: Homo sapiens, uterus
Procedure: as §1, §2

[18] = tested on: KYSE270; conditions: Homo sapiens, KYSE-270; KYSE270, esophagus
Procedure: as §1, §2

[19] = tested on: KYSE410; conditions: Homo sapiens, KYSE-410; KYSE410, esophagus
Procedure: as §1, §2

[20] = tested on: MG63; conditions: Homo sapiens, MG-63; MG63, bone
Procedure: as §1, §2

[21] = tested on: NOS1; conditions: NOS1, bone
Procedure: as §1, §2

[22] = tested on: OE19; conditions: Homo sapiens; OE19, esophagus
Procedure: as §1, §2

[23] = tested on: OVA2BUR; conditions: ovary
Procedure: as §1, §2

[24] = tested on: OVMANA; conditions: ovary
Procedure: as §1, §2

[25] = tested on: PECAPJ49; conditions: PECAPJ49, head and neck
Procedure: as §1, §2

[26] = tested on: QGP1; conditions: QGP-1; QGP1, pancreas
Procedure: as §1, §2

[27] = tested on: RCM1; conditions: Homo sapiens, RCM-1; RCM1, colon
Procedure: as §1, §2

[28] = tested on: RL952; conditions: Homo sapiens, RL95-2; RL952, uterus
Procedure: as §1, §2

[29] = tested on: SAOS2; conditions: Homo sapiens, SAOS-2; SAOS2, bone
Procedure: as §1, §2

[30] = tested on: SKES1; conditions: Homo sapiens, SK-ES1; SKES1, bone
Procedure: as §1, §2

[31] = tested on: SNU1041; conditions: SNU1041, head and neck
Procedure: as §1, §2

[32] = tested on: SNU119; conditions: SNU119, ovary
Procedure: as §1, §2

[33] = tested on: SNUC5; conditions: SNUC5, colon
Procedure: as §1, §2

[34] = tested on: SUIT2; conditions: SUIT-2; SUIT2, pancreas
Procedure: as §1, §2

[35] = tested on: SW948; conditions: Homo sapiens; SW948, colon
Procedure: as §1, §2

[36] = tested on: TE9; conditions: Homo sapiens, TE-9; TE9, esophagus
Procedure: as §1, §2

[37] = tested on: VMRCRCW; conditions: kidney
Procedure: as §1, §2

[38] = tested on: YKG1; conditions: Homo sapiens, YKG-1; YKG1, nervous system
Procedure: as §1, §2

Row | Structure (SMILES) | IC50 [1] [µM] | IC50 [2] [µM] | IC50 [3] [µM] | IC50 [4] [µM] | IC50 [5] [µM] | IC50 [6] [µM] | IC50 [7] [µM] | IC50 [8] [µM] | IC50 [9] [µM] | IC50 [10] [µM] | IC50 [11] [µM] | IC50 [12] [µM] | IC50 [13] [µM] | IC50 [14] [µM] | IC50 [15] [µM] | IC50 [16] [µM] | IC50 [17] [µM] | IC50 [18] [µM] | IC50 [19] [µM] | IC50 [20] [µM] | other results
1 | NC(=O)c1cccc2cn(-c3ccc([C@@H]4CCCNC4)cc3)nc12 [Niraparib, niraparib, reference compound] | > 0.3 | > 0.3 | > 0.3 | > 0.3 | > 0.3 | > 0.3 | 0.107 | 0.00826 | 0.0425 | 0.0611 | > 0.3 | 0.103 | > 0.3 | > 0.3 | > 0.3 | > 0.3 | > 0.3 | 0.0169 | > 0.3 | > 0.3 | IC50 [21]: > 0.3 µM; IC50 [22]: > 0.3 µM; IC50 [23]: > 0.3 µM; IC50 [24]: > 0.3 µM; IC50 [25]: > 0.3 µM; IC50 [26]: > 0.3 µM; IC50 [27]: > 0.3 µM; IC50 [28]: > 0.3 µM; IC50 [29]: 0.201 µM; IC50 [30]: 0.0236 µM; IC50 [31]: > 0.3 µM; IC50 [32]: 0.039 µM; IC50 [33]: 0.0924 µM; IC50 [34]: > 0.3 µM; IC50 [35]: > 0.3 µM; IC50 [36]: > 0.3 µM; IC50 [37]: > 0.3 µM; IC50 [38]: > 0.3 µM
2 | COc1ncnc(C2CC2)c1-c1ncc2cnn(Cc3ccc(-c4nc(C(F)(F)F)cn4C)cc3)c2n1 [Formula II, 6-(4-cyclopropyl-6-methoxypyrimidin-5-yl)-1-(4-(1-methyl-4-(trifluoromethyl)-1H-imidazol-2-yl)benzyl)-1H-pyrazolo[3,4-d]pyrimidine] | > 0.3 | > 0.3 | > 0.3 | > 0.3 | > 0.3 | > 0.3 | > 0.3 | > 0.3 | > 0.3 | > 0.3 | > 0.3 | > 0.3 | > 0.3 | > 0.3 | > 0.3 | > 0.3 | > 0.3 | > 0.3 | > 0.3 | > 0.3 | IC50 [21]: > 0.3 µM; IC50 [22]: > 0.3 µM; IC50 [23]: > 0.3 µM; IC50 [24]: > 0.3 µM; IC50 [25]: > 0.3 µM; IC50 [26]: > 0.3 µM; IC50 [27]: > 0.3 µM; IC50 [28]: > 0.3 µM; IC50 [29]: > 0.3 µM; IC50 [30]: > 0.3 µM; IC50 [31]: > 0.3 µM; IC50 [32]: > 0.3 µM; IC50 [33]: > 0.3 µM; IC50 [34]: > 0.3 µM; IC50 [35]: > 0.3 µM; IC50 [36]: > 0.3 µM; IC50 [37]: > 0.3 µM; IC50 [38]: > 0.3 µM
